Results from article PMC11539907, “Cytotoxicity of norstictic acid derivatives, a depsidone from Ramalina anceps Nyl” (Turkish Journal of Chemistry, 2024).
“Also recorded” adds a separate entry of the source. Read-outs that look alike come from different tables or passages of the source.

Columns and labels:
[1] = test system: UACC-62 (human melanoma) cells; details: 3T3 vs UACC-62; ref Brandão et al. (2013); cited from earlier work
[2] = test system: NIH/3T3 (mouse embryonic fibroblast) cells; experiment: sulforhodamine B (SRB) cytotoxicity assay, NIH/3T3 normal cells; type: cell-based; details: for GI50: Mus musculus, NIH3T3, NIH/3T3 normal cells, SRB assay, read-out: growth inhibition (GI50); for effect on normal cells in words: 3T3 cells
Excerpt: (§1) MCF7 (ATCC HTB-22, breast adenocarcinoma), 786-0 (ATCC CRL-1932, renal cell adenocarcinoma), PC-03 (ATCC CRL-1435, prostatic adenocarcinoma), HT-29 (ATCCHTB-38, colorectal adenocarcinoma), and HEP2 (ATCC CCL-23, laryngeal carcinoma) cells donated by Dr. João Ernesto de Carvalho (CPQBA – UNICAMP), and NIH/3T3 cells (ATCC CRL-1658, mouse embryonic fibroblast), purchased from the Rio de Janeiro Cell Bank, were used for the evaluation of cytotoxic activity. Cell maintenance and treatment were performed as described by Freshney. The sulforhodamine B (SRB) assay was carried out according to Brandão et al. and Bogo et al..
(§2) The selectivity index (SI) measures a compound’s ability to target a neoplastic cell line rather than a normal cell line, indicating its potential for use in clinical trials. In the present study, the SI of each substance was calculated as the quotient of its GI50 value for normal NIH/3T3 cells divided by the GI50 value for a neoplastic cell line. SI values greater than 3.0 were considered significant.

[3] = test system: HT-29 (colon carcinoma) cells; experiment: sulforhodamine B (SRB) cytotoxicity assay, HT-29; type: cell-based; details: for selectivity index (SI): GI50 on 3T3 cells divided by GI50 on HT-29; for GI50: Homo sapiens, HT-29 cells, SRB assay, read-out: growth inhibition (GI50)
Excerpt: as §1, §2

[4] = test system: UACC-62 (human melanoma) cells; experiment: sulforhodamine B (SRB) cytotoxicity assay, UACC-62; type: cell-based; details: for selectivity index (SI): GI50 on 3T3 cells divided by GI50 on UACC-62; for GI50: Homo sapiens, UACC-62 cells, SRB assay, read-out: growth inhibition (GI50)
Excerpt: [Worded in the source for another cell line; this cell line is reported under the same test.] as §1, §2

[5] = test system: HEP2 (laryngeal carcinoma) cells; experiment: sulforhodamine B (SRB) cytotoxicity assay, HEP2; type: cell-based; details: for selectivity index (SI): GI50 on 3T3 cells divided by GI50 on HEP2; for GI50: Homo sapiens, HEp-2, HEP2 cells, SRB assay, read-out: growth inhibition (GI50)
Excerpt: as §1, §2

[6] = test system: PC-03 (prostate carcinoma) cells; experiment: sulforhodamine B (SRB) cytotoxicity assay, PC-03; type: cell-based; details: for selectivity index (SI): GI50 on 3T3 cells divided by GI50 on PC-03; for GI50: PC-03 cells, SRB assay, read-out: growth inhibition (GI50)
Excerpt: as §1, §2

[7] = test system: 786-0 (kidney carcinoma) cells; experiment: sulforhodamine B (SRB) cytotoxicity assay, 786-0; type: cell-based; details: for selectivity index (SI): GI50 on 3T3 cells divided by GI50 on 786-0; for GI50: Homo sapiens, 786-0 cells, SRB assay, read-out: growth inhibition (GI50)
Excerpt: as §1, §2

[8] = test system: B16-F10 (murine melanoma) cells; experiment: sulforhodamine B (SRB) cytotoxicity assay, B16-F10; type: cell-based; details: for selectivity index (SI): GI50 on 3T3 cells divided by GI50 on B16-F10; for GI50: Mus musculus, B16-F10 cells, SRB assay, read-out: growth inhibition (GI50)
Excerpt: [Worded in the source for another cell line; this cell line is reported under the same test.] as §1, §2

[9] = test system: MCF7 (breast carcinoma) cells; experiment: sulforhodamine B (SRB) cytotoxicity assay, MCF7; type: cell-based; details: for selectivity index (SI): GI50 on 3T3 cells divided by GI50 on MCF7; for GI50: Homo sapiens, MCF7 cells, SRB assay, read-out: growth inhibition (GI50)
Excerpt: as §1, §2

[10] = test system: tested tumor cells (786-0, MCF7, HT-29, PC-03, HEP2, B16-F10, UACC-62); experiment: sulforhodamine B (SRB) cytotoxicity assay, results stated over several cell lines; type: cell-based; details: for cytotoxic activity in words: cell lines as named in the quoted words; for selectivity index (SI), range over all tumor cells: all tested tumor cells vs NIH/3T3
Excerpt: as §1, §2

[11] = all tested tumor cells, read-out: GI50, range over all tumor cells
[12] = listed as 8′-O-isopropyl-norstictic acid

SMILES	melting point	GI50 [2]	selectivity index (SI) [3]	GI50 [3]	selectivity index (SI) [4]	GI50 [4]	selectivity index (SI) [5]	GI50 [5]	selectivity index (SI) [6]	GI50 [6]	selectivity index (SI) [7]	GI50 [7]	selectivity index (SI) [8]	GI50 [8]	selectivity index (SI) [9]	GI50 [9]	cytotoxic activity in words [10]	also measured
COc1cccc2c1C(=O)c1c(O)c3c(c(O)c1C2=O)C[C@@](O)(C(=O)CO)C[C@@H]3O[C@H]1C[C@H](N)[C@H](O)[C@H](C)O1 [Doxorubicin, reference compound]		0.55 µM	1.23	0.43 µM	4.5	0.12 µM	0.84	0.65 µM	16.0	0.034 µM	1.23	0.43 µM	1.28	0.43 µM	6.4	0.086 µM		selectivity index (SI) [1]: 1.2
CCCOC1OC(=O)c2c(O)c(C)c3c(c21)Oc1c(C=O)c(O)cc(C)c1C(=O)O3 (stereo not shown) [compound 2, 8′-O-n-propyl-norstictic acid]	183 °C	63 µM	0.13	470 µM	1.2	50 µM	0.94	70 µM	2.03	30 µM	0.43	140 µM		> 600 µM	0.15	410 µM	did not show activity against the tested tumor cells; also recorded: comparatively low activity against the cancerous cell lines	selectivity index (SI) ([6]; listed as n-propyl): 33.8; GI50 ([6]; listed as n-propyl): 1.28 µM
CCCCCOC1OC(=O)c2c(O)c(C)c3c(c21)Oc1c(C=O)c(O)cc(C)c1C(=O)O3 (stereo not shown) [compound 4, 8′-O-n-pentyl-norstictic acid]	175 °C	57.2 µM	1.50	38.2 µM	1.51	37.8 µM	1.19	48.2 µM	6.53	8.77 µM	0.75	76.2 µM	1.03	55.4 µM	3.69	15.5 µM	low biological activity	
CCC(C)OC1OC(=O)c2c(O)c(C)c3c(c21)Oc1c(C=O)c(O)cc(C)c1C(=O)O3 (stereo not shown) [compound 7, 8′-O-sec-butyl-norstictic acid]	170 °C	594 µM	48.3	12.3 µM	20.2	29.4 µM	78.0	7.6 µM	11.30	52.4 µM	27.78	21.4 µM	64.4	9.2 µM	87.4	6.8 µM		effect on normal cells in words [2]: lowest effect on 3T3 cells; selectivity index (SI), range over all tumor cells [10]: 11.30–87.40; GI50 [10, 11]: 6.8 to 52.4 µM

More lines, main results first:

melting point	SMILES	GI50 [2]	selectivity index (SI) [3]	GI50 [3]	selectivity index (SI) [4]	GI50 [4]	selectivity index (SI) [5]	GI50 [5]	selectivity index (SI) [6]	GI50 [6]	selectivity index (SI) [7]	GI50 [7]	selectivity index (SI) [8]	GI50 [8]	selectivity index (SI) [9]	GI50 [9]	cytotoxic activity in words [10]	also measured
169 °C	CCCCOC1OC(=O)c2c(O)c(C)c3c(c21)Oc1c(C=O)c(O)cc(C)c1C(=O)O3 (stereo not shown) [compound 3, 8′-O-n-butyl-norstictic acid]	625 µM	16.34	38.3 µM	54.1	11.5 µM	78.77	7.94 µM	98.11	6.37 µM	22.21	28.2 µM	13.88	45 µM	47.15	13.3 µM		effect on normal cells in words [2]: lowest effect on 3T3 cells; selectivity index (SI), range over all tumor cells [10]: 13.88–98.11; GI50 [10, 11]: 6.37 to 45 µM
178 °C	CCCCCCOC1OC(=O)c2c(O)c(C)c3c(c21)Oc1c(C=O)c(O)cc(C)c1C(=O)O3 (stereo not shown) [compound 5, 8′-O-n-hexyl-norstictic acid]	54.9 µM	7.66	7.16 µM	1.06	51.6 µM	9.2	5.96 µM	7.60	7.23 µM	1.75	31.4 µM	0.97	56.3 µM	5.76	9.53 µM	showed activity against MCF7, HT-29, PC-03, and HEP2 cells	GI50 ([10]; MCF7, HT-29, PC-03, and HEP2 cells, read-out: GI50, range): 5.96 to 9.53 µM
185 °C	Cc1cc(O)c(C=O)c2c1C(=O)Oc1c(C)c(O)c3c(c1O2)C(OC(C)C)OC3=O (stereo not shown) [compound 6, 8′-O-isopropyl-norstictic acid]	43.2 µM	0.86	50.2 µM	7.0	6.2 µM	5.56	7.78 µM	33.8	1.28 µM	0.86	50.1 µM	4.48	9.65 µM	0.73	59.3 µM	active against PC-03, HEP2, B16-F10, and UACC-62 cells	selectivity index (SI), range ([10]; PC-03, HEP2, B16-F10, and UACC-62 cells vs NIH/3T3): 4.48 to 33.8; GI50 ([10]; PC-03, HEP2, B16-F10, and UACC-62 cells, read-out: GI50, range): 1.28 to 9.65 µM; selectivity index (SI) [5, 12]: 5.5; selectivity index (SI) [8, 12]: 4.5
196 °C	Cc1cc(O)c(C=O)c2c1C(=O)Oc1c(C)c(O)c3c(c1O2)C(OC(C)(C)C)OC3=O (stereo not shown) [compound 8, 8′-O-tert-butyl-norstictic acid]	38.5 µM	0.28	139 µM	0.57	67.1 µM	0.66	57.8 µM	5.0	7.6 µM	0.6	63.3 µM	0.42	90.3 µM	0.6	64.2 µM	active only against PC-03 cells; also recorded: low biological activity	
